Results reported in patent US20230117034A1, “PYRAZOLOTRIAZINES” (Bayer Aktiengesellschaft, priority 2019, published 2023).

What was measured:
CDK9/CycT1 = target: T1, CDK9/CycT1 (Homo sapiens, UniProt P50750); experiment: CDK9/CycT1 high ATP kinase assay (TR-FRET, 2 mM ATP); type: biochemical; details: 2 mM ATP (high ATP); median; read-out: CDK9/CyclinT1, 2 mM ATP (high ATP), IC50 (median)
T1 construct: Recombinant full-length His-tagged human CDK9 and CycT1; purchased Life Technologies PV4131; host or cells: insect cells
Protocol: CDK9/CycT1-inhibitory activity of compounds of the present invention at a high ATP concentration after preincubation of enzyme and test compounds was quantified employing the CDK9/CycT1 TR-FRET assay as described in the following paragraphs.
Recombinant full-length His-tagged human CDK9 and CycT1, expressed in insect cells and purified by Ni-NTA affinity chromatography, were purchased from Life Technologies (Cat. No PV4131). As substrate for the kinase reaction biotinylated peptide biotin-Ttds-[…] (C-terminus in amide form) was used which can be purchased e.g. form the company JERINI peptide technologies (Berlin, Germany).
For the assay 50 nanoL of a 100 fold concentrated solution of the test compound in DMSO was pipetted into either a black low volume 384 well microtiter plate or a black 1536 well microtiter plate (both Greiner Bio-One, Frickenhausen, Germany), 2 microL of a solution of CDK9/CycT1 in aqueous assay buffer [50 millimol/L Tris/HCl pH 8.0, 10 millimol/L MgCl2, 1.0 millimol/L dithiothreitol, 0.1 millimol/L sodium ortho-vanadate, 0.01% (v/v) Nonidet-P40 (Sigma)] were added and the mixture was incubated for 15 min at 22° C. to allow pre-binding of the test compounds to the enzyme before the start of the kinase reaction. […] The concentration of CDK9/CycT1 was adjusted depending of the activity of the enzyme lot and was chosen appropriate to have the assay in the linear range, typical concentrations were in the range of 0.5 microg/ml.
The resulting mixture was incubated 1 h at 22° C. to allow the formation of complex between the phosphorylated biotinylated peptide and the detection reagents. Subsequently the amount of phosphorylated substrate was evaluated by measurement of the resonance energy transfer from the Eu-chelate to the streptavidine-XL. Therefore, the fluorescence emissions at 620 nm and 665 nm after excitation at 350 nm was measured in a TR-FRET reader, e.g. a Pherastar (BMG Labtechnologies, Offenburg, Germany) or a Viewlux (Perkin-Elmer). The ratio of the emissions at 665 nm and at […] was taken as the measure for the amount of phosphorylated substrate.

[1] = system: BRCA1 mRNA expression in MDA-MB-231 cells; experiment: qRT-PCR assay: BRCA1 mRNA expression in MDA-MB-231; type: cell-based, human; details: Homo sapiens, MDA-MB-231, Inhibition of BRCA1 mRNA expression in MDA-MB-231 cells; median; read-out: RTqPCR-MDA-MB-231, IC50, BRCA1 (median)
Protocol: 3. qRT-PCR Assay: BRCA, ATR, MCL1 in MDA-MB-231, CAL-120
Tissue cultured human MDA-MB-231 human breast cancer cells were plated in 500 microL per well at 200,000 cells/well in a 24 well microtiter plate. After 24 h, the cells were exposed continuously for 24 h to test substances (substances were added with Tecan HP 0300 Dispenser). RNA was prepared using Qiagen RNeasy MiniKit (#74106), RNA was quantified using a NanoDrop Equipment, and 600 nano gamms of RNA was coverted to cDNA using a SuperScript VILO kit (Thermofisher #11755050) followed by qPCR amplification. BRCA1 and ATR gene expression was measured by RT-qPCR and normalised to GAPDH housekeeping gene expression. qPCR primer sets have been purchased from Thermo Fisher Scientific/Applied Biosystems: BRCA1, #Hs 01556193; ATR, #Hs 00992123; GAPDH, #Hs 03929097.

T1 sequence (P50750 whole entry): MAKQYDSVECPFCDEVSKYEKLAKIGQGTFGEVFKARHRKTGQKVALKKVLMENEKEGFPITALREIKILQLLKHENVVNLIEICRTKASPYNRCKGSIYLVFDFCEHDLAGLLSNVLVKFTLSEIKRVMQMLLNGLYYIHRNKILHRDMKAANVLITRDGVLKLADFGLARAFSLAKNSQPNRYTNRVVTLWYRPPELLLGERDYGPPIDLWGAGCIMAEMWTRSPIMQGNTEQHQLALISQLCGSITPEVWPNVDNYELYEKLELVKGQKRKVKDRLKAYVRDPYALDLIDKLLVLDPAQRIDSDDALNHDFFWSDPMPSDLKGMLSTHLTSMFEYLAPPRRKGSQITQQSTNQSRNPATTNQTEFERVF
T1 sequence (O60563 whole entry partner): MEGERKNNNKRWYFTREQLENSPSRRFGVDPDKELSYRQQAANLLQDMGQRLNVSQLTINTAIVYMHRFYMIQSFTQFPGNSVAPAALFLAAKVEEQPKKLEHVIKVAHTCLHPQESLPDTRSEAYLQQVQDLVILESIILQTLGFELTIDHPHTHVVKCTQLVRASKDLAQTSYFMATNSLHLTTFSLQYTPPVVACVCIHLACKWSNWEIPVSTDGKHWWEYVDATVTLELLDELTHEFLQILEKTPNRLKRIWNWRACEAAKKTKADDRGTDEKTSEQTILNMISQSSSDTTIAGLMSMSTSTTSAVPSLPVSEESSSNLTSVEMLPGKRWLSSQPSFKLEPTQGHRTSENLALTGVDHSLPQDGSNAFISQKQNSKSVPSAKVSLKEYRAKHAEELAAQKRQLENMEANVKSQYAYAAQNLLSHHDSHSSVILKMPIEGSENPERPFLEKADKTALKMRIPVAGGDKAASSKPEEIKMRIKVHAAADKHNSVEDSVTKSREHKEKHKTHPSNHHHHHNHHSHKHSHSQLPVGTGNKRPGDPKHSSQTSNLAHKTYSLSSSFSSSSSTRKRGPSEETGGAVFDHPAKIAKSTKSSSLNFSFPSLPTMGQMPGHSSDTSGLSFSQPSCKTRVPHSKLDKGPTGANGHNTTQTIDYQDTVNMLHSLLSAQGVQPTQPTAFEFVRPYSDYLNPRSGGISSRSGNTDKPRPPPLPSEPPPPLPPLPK

SMILES | IC50 (CDK9/CycT1) [nM] | IC50 [1] [nM]
NCCc1cccc2[nH]c(CNc3nc(N4CCOCC4)nc4c(Br)cnn34)nc12 [Example 112, N-{[7-(2-aminoethyl)-1H-benzimidazol-2-yl]methyl}-8-bromo-2-(morpholin-4-yl)pyrazolo[1,5-a][1,3,5]triazin-4-amine] | > 20000 | 23.7
CC(C)c1cnn2c(NCc3nc4ccccc4[nH]3)nc(N3CC4(COC4)C3)nc12 [Example 9, N-[(1H-benzimidazol-2-yl)methyl]-2-(2-oxa-6-azaspiro[3.3]heptan-6-yl)-8-(propan-2-yl)pyrazolo[1,5-a][1,3,5]triazin-4-amine] | > 20000 | 255
CC(C)c1cnn2c(NCc3nc4ccccc4[nH]3)nc(N3CCOC[C@H]3C)nc12 [Example 7, N-[(1H-benzimidazol-2-yl)methyl]-2-[(3R)-3-methylmorpholin-4-yl]-8-(propan-2-yl)pyrazolo[1,5-a][1,3,5]triazin-4-amine] | > 20000 | 203
Fc1ccccc1-c1cnn2c(NCc3nc4ccccc4[nH]3)nc(N3CCOCC3)nc12 [Example 95, N-[(1H-benzimidazol-2-yl)methyl]-8-(2-fluorophenyl)-2-(morpholin-4-yl)pyrazolo[1,5-a][1,3,5]triazin-4-amine] | > 20000 | 147
CC(=O)NCCCc1cccc2[nH]c(CNc3nc(N4CCOCC4)nc4c(Br)cnn34)nc12.O=CO [Example 115, formic acid-N-{3-[2-({[8-bromo-2-(morpholin-4-yl)pyrazolo[1,5-a][1,3,5]triazin-4-yl]amino}methyl)-1H-benzimidazol-4-yl]propyl}acetamide (1/1)] | > 20000 | –
CN1CCN(c2nc(NCc3nc4ccccc4[nH]3)n3ncc(Br)c3n2)CC1=O [Example 131, 4-(4-{[(1H-benzimidazol-2-yl)methyl]amino}-8-bromopyrazolo[1,5-a][1,3,5]triazin-2-yl)-1-methylpiperazin-2-one] | > 20000 | –
c1ccc(-c2cnn3c(NCc4nc5ccccc5[nH]4)nc(N4CCOCC4)nc23)cc1 [Example 104, N-[(1H-benzimidazol-2-yl)methyl]-2-(morpholin-4-yl)-8-phenylpyrazolo[1,5-a][1,3,5]triazin-4-amine] | > 20000 | 30
NCCc1ccc2[nH]c(CNc3nc(N4CCOCC4)nc4c(Br)cnn34)nc2c1.O=CO [Example 113, formic acid-N-{[5-(2-aminoethyl)-1H-benzimidazol-2-yl]methyl}-8-bromo-2-(morpholin-4-yl)pyrazolo[1,5-a][1,3,5]triazin-4-amine (1/1)] | > 18900 | 21.1
NCCCc1cccc2[nH]c(CNc3nc(N4CCOCC4)nc4c(Br)cnn34)nc12.O=CO [Example 114, formic acid-N-{[4-(3-aminopropyl)-1H-benzimidazol-2-yl]methyl}-8-bromo-2-(morpholin-4-yl)pyrazolo[1,5-a][1,3,5]triazin-4-amine (1/1)] | > 20000 | –
CC1(C)CN(c2nc(NCc3nnc(-c4ccccc4)[nH]3)n3ncc(C4CC4)c3n2)CCO1 [Example 94, 8-cyclopropyl-2-(2,2-dimethylmorpholin-4-yl)-N-[(5-phenyl-4H-1,2,4-triazol-3-yl)methyl]pyrazolo[1,5-a][1,3,5]triazin-4-amine] | 12800 | 222
CN1CCN(c2nc(NCc3nnc(-c4ccccc4)[nH]3)n3ncc(Br)c3n2)CC1=O [Example 121, 4-(8-bromo-4-{[(5-phenyl-4H-1,2,4-triazol-3-yl)methyl]amino}pyrazolo[1,5-a][1,3,5]triazin-2-yl)-1-methylpiperazin-2-one] | 10100 | 344
Clc1cccc(-c2cnn3c(NCc4nc5ccccc5[nH]4)nc(N4CCOCC4)nc23)c1 [Example 107, N-[(1H-benzimidazol-2-yl)methyl]-8-(3-chlorophenyl)-2-(morpholin-4-yl)pyrazolo[1,5-a][1,3,5]triazin-4-amine] | > 20000 | 151

The next lines start with the values.

IC50 (CDK9/CycT1) [nM] | IC50 [1] [nM] | SMILES
> 20000 | – | C[C@@H]1CCCCN1c1nc(NCc2nc3ccccc3[nH]2)n2ncc(Br)c2n1 [Example 140, N-[(1H-benzimidazol-2-yl)methyl]-8-bromo-2-[(2R)-2-methylpiperidin-1-yl]pyrazolo[1,5-a][1,3,5]triazin-4-amine]
> 20000 | 148 | Brc1cnn2c(NCc3nc4ccccc4[nH]3)nc(N3CCN4CCC[C@@H]4C3)nc12 [Example 149, N-[(1H-benzimidazol-2-yl)methyl]-8-bromo-2-[(8aR)-hexahydropyrrolo[1,2-a]pyrazin-2 (1 H)-yl]pyrazolo[1,5-a][1,3,5]triazin-4-amine]
> 20000 | 46.2 | O=S1(=O)CCN(c2nc(NCc3nc4ccccc4[nH]3)n3ncc(Br)c3n2)CC1 [Example 166, 4-(4-{[(1H-benzimidazol-2-yl)methyl]amino}-8-bromopyrazolo[1,5-a][1,3,5]triazin-2-yl)-1 lambda^6-thiomorpholine-1,1-dione]
> 20000 | – | CN1CCN(c2nc(NCc3nc4ccccc4[nH]3)n3ncc(Br)c3n2)C(CO)C1 (stereo not drawn) [Example 155, [1-[4-(1H-benzimidazol-2-ylmethylamino)-8-bromo-pyrazolo[1,5-a][1,3,5]triazin-2-yl]-4-methyl-piperazin-2-yl]methanol]
> 20000 | 76.7 | OCC1CCN1c1nc(NCc2nc3ccccc3[nH]2)n2ncc(Br)c2n1 (stereo not drawn) [Example 147, [1-[4-(1H-benzimidazol-2-ylmethylamino)-8-bromo-pyrazolo[1,5-a][1,3,5]triazin-2-yl]azetidin-2-yl]methanol]
> 20000 | 190 | N=S1(=O)CCN(c2nc(NCc3nc4ccccc4[nH]3)n3ncc(Br)c3n2)CC1 [Example 145, 4-(4-{[(1H-benzimidazol-2-yl)methyl]amino}-8-bromopyrazolo[1,5-a][1,3,5]triazin-2-yl)-1-imino-1lambda^6-thiomorpholin-1-one]
> 20000 | – | Brc1cnn2c(NCc3nc4ccccc4[nH]3)nc(N3CCN(C4CC4)CC3)nc12 [Example 138, N-[(1H-benzimidazol-2-yl)methyl]-8-bromo-2-(4-cyclopropylpiperazin-1-yl)pyrazolo[1,5-a][1,3,5]triazin-4-amine]
> 20000 | – | Brc1cnn2c(NCc3nc4ccccc4[nH]3)nc(N3CCC3)nc12 [Example 143, 2-(azetidin-1-yl)-N-[(1H-benzimidazol-2-yl)methyl]-8-bromopyrazolo[1,5-a][1,3,5]triazin-4-amine]
> 20000 | – | FC(F)(F)CN1CCN(c2nc(NCc3nc4ccccc4[nH]3)n3ncc(Br)c3n2)CC1 [Example 139, N-[(1H-benzimidazol-2-yl)methyl]-8-bromo-2-[4-(2,2,2-trifluoroethyl)piperazin-1-yl]pyrazolo[1,5-a][1,3,5]triazin-4-amine]
> 20000 | 83.3 | [O-][S+]1CCN(c2nc(NCc3nc4ccccc4[nH]3)n3ncc(Br)c3n2)CC1 [Example 144, 4-(4-{[(1H-benzimidazol-2-yl)methyl]amino}-8-bromopyrazolo[1,5-a][1,3,5]triazin-2-yl)-1lambda^4-thiomorpholin-1-one]
